Test results as given in US8222270B2 (Medicis Pharmaceutical Corporation, priority 2008, dated 2012).
Several values for one entry are separate records, joined by “and”; a condition that tells them apart may be missing. Equal values may be shown once.

How the values were obtained:
[1] = Acute single dose toxicity (oral, intraperitoneal, subcutaneous, intravenous); assay type: in vivo
[2] = Oral (gavage) carcinogenicity study, 24 months
[3] = Topical pharmacokinetics, 5 mg/kg three times per week for 4 weeks; conditions: rat, in vivo
[4] = Intravenous embryofetal development study; assay type: in vivo, rabbits
[5] = Repeat dose oral toxicity, 6 months; assay type: in vivo, rats; conditions: dosed daily for 6 months
Procedure: (§1) The adverse effects observed for the high doses (10-30 mg/kg) in repeat dose oral toxicity studies in rats and monkeys could be related to exaggerated pharmacological effects of excessive cytokines induction and lymphoid stimulation: reduced body weight gains, anaemia, serum protein changes and death. […] An oral no-adverse-effect level of 3 mg/kg/day was determined in both rats and monkeys dosed daily for 6 months.

[6] = Repeat dose oral toxicity, 6 months; assay type: in vivo, monkeys; conditions: dosed daily for 6 months
Procedure: as §1

[7] = Oral embryofetal development study; assay type: in vivo, rats
Procedure: Systemic embryofetal development studies were conducted in rats and rabbits.

[8] = Repeat dose dermal toxicity studies; assay type: in vivo, rats
Procedure: A dose-related decrease in body weight of male rats was also observed. No systemic toxicity was found at doses up to 5 mg/kg three days per week for 4 weeks or at doses up to 2.5 mg/kg three days per week for 16 weeks.

[9] = Acute dermal toxicity under occlusion
[10] = Procedure: A combined fertility and peri- and post-natal development study was conducted in rats.
[11] = Stability of calibration standards in spent receiver fluid; assay type: physicochemical; conditions: vs T = 0

Compound: CC(C)Cn1cnc2c(N)nc3ccccc3c21 [imiquimod, 1-(2-methylpropyl)-1H-imidazo[4,5-c]quinolin-4-amine]
- LD50 ([1]; Monkey, intravenous bolus): >6 mg/kg
- LD50 ([1]; Monkey, intravenous infusion): ≈8 mg/kg
- LD50 ([1]; Monkey, oral): >200 mg/kg
- LD50 ([1]; Rat, subcutaneous): ≈20 mg/kg
- Single dose toxicity signs ([1]; oral, intraperitoneal, subcutaneous or intravenous, lethal doses): central nervous system (CNS) stimulation and convulsions
- Exposure multiple, male and female rats ([2]; 3 mg/kg 7×/week): 29 ×MRHD
- Exposure multiple, male rats ([2]; 4 mg/kg 2×/week): 45 ×MRHD
- Exposure multiple, female rats ([2]; 6 mg/kg 2×/week): 57 ×MRHD based on AUC comparisons
- Highest dose tested without treatment related tumors, female rats ([2]; 2×/week, 24 months): 6 mg/kg
- Highest dose tested without treatment related tumors, male rats ([2]; 2×/week, 24 months): 4 mg/kg
- Highest dose tested without treatment related tumors, male and female rats ([2]; 7×/week, 24 months): 3 mg/kg
- Carcinogenic effect, male and female rats ([2]; two-year bioassay, up to 3 mg/kg orally per day): no evidence of a carcinogenic effect
- Imiquimod in serum [3]: not quantifiable
- Teratogenicity ([4]; female, rabbit, in vivo): not teratogenic
- Dose with no treatment related effects on embryofetal toxicity or teratogenicity ([4]; intravenous, gestational days 6-18): 2 mg/kg/day and 1 mg/kg/day
- Oral no-adverse-effect level [5]: 3 mg/kg/day
- Oral no-adverse-effect level [6]: 3 mg/kg/day
- Exposure multiple at dose with fetal effects ([7]; female, rat, in vivo): 427 ×MRHD based on AUC comparisons
- Exposure multiple at no-effect dose ([7]; female, rat, in vivo): 83 ×MRBD based on AUC comparisons
- Teratogenicity ([7]; female, rat, in vivo): not teratogenic
- High maternally toxic dose with reduced pup weights and delayed ossification ([7]; female, rat, in vivo, 20 mg/kg/day): 28 times human dose on a mg/m^2 basis
- Dose at which fetal effects were noted (in the presence of maternal toxicity) ([7]; oral, gestational days 6-15): 20 mg/kg/day
- Dose with no treatment related effects on embryofetal toxicity or teratogenicity ([7]; oral, gestational days 6-15): 5 mg/kg/day
- Dose up to which no systemic toxicity was found ([8]; three days per week for 4 weeks): 5 mg/kg
- Dose up to which no systemic toxicity was found ([8]; three days per week for 16 weeks): 2.5 mg/kg
- Dermal lethal dose ([9]; rabbit, in vivo): greater than 5000 mg/kg
- LD50 ([9]; rabbit, in vivo, topical, 5000 mg/kg): > 5000 mg/kg
- Acute dermal toxicity ([9]; unformulated, under occlusion, 5000 mg/kg): did not reveal any toxic effects
- Exposure multiple at dose without teratogenicity ([10]; 3 mg/kg/day): 27 ×MRHD based on AUC comparisons
- Dose up to which no impairment of reproduction was demonstrated ([10]; daily oral, throughout mating, gestation, parturition and lactation): 8 times recommended human dose on a mg/m^2 basis
- Dose at which bent limb bones were noted in the F1 fetuses ([10]; in the absence of maternal toxicity): 6 mg/kg/day
- Dose with no treatment related effects on teratogenicity ([10]; oral): 3 mg/kg/day
- 48 h % recovered in Spent receiver fluid ([11]; Standard 5.275 μg/ml, Epidermal sheet + placebo, 37° C.): 86.828%
- 48 h % recovered in Spent receiver fluid ([11]; Standard 5.275 μg/ml, Epidermal sheet + placebo, Fridge): 88.881%
- 48 h % recovered in Spent receiver fluid ([11]; Standard 5.275 μg/ml, Epidermal sheet + placebo, RT): 86.540%
- 48 h % recovered in Spent receiver fluid ([11]; Standard 5.275 μg/ml, Epidermal sheet, 37° C.): 85.995%
- 48 h % recovered in Spent receiver fluid ([11]; Standard 5.275 μg/ml, Epidermal sheet, Fridge): 88.938%
- 48 h % recovered in Spent receiver fluid ([11]; Standard 5.275 μg/ml, Epidermal sheet, RT): 91.447%
- 48 h % recovered in Spent receiver fluid ([11]; Standard 5.275 μg/ml, Full thickness + placebo, 37° C.): 86.134%
- 48 h % recovered in Spent receiver fluid ([11]; Standard 5.275 μg/ml, Full thickness + placebo, Fridge): 90.260%
- 48 h % recovered in Spent receiver fluid ([11]; Standard 5.275 μg/ml, Full thickness + placebo, RT): 87.973%
- 48 h % recovered in Spent receiver fluid ([11]; Standard 5.275 μg/ml, Full thickness, 37° C.): 90.611%
- 48 h % recovered in Spent receiver fluid ([11]; Standard 5.275 μg/ml, Full thickness, Fridge): 94.586%
- 48 h % recovered in Spent receiver fluid ([11]; Standard 5.275 μg/ml, Full thickness, RT): 95.232%
- 48 h % recovered in Spent receiver fluid ([11]; Standard 42.2 μg/ml, Epidermal sheet + placebo, 37° C.): 95.095%
- 48 h % recovered in Spent receiver fluid ([11]; Standard 42.2 μg/ml, Epidermal sheet + placebo, Fridge): 93.077%
- 48 h % recovered in Spent receiver fluid ([11]; Standard 42.2 μg/ml, Epidermal sheet + placebo, RT): 92.904%
- 48 h % recovered in Spent receiver fluid ([11]; Standard 42.2 μg/ml, Epidermal sheet, 37° C.): 89.641%
- 48 h % recovered in Spent receiver fluid ([11]; Standard 42.2 μg/ml, Epidermal sheet, Fridge): 85.716%
- 48 h % recovered in Spent receiver fluid ([11]; Standard 42.2 μg/ml, Epidermal sheet, RT): 86.340%
- 48 h % recovered in Spent receiver fluid ([11]; Standard 42.2 μg/ml, Full thickness + placebo, 37° C.): 86.439%
- 48 h % recovered in Spent receiver fluid ([11]; Standard 42.2 μg/ml, Full thickness + placebo, Fridge): 83.976%
- 48 h % recovered in Spent receiver fluid ([11]; Standard 42.2 μg/ml, Full thickness + placebo, RT): 84.144%
- 48 h % recovered in Spent receiver fluid ([11]; Standard 42.2 μg/ml, Full thickness, 37° C.): 95.939%
- 48 h % recovered in Spent receiver fluid ([11]; Standard 42.2 μg/ml, Full thickness, Fridge): 95.103%
- 48 h % recovered in Spent receiver fluid ([11]; Standard 42.2 μg/ml, Full thickness, RT): 95.805%
